The values below come from US9402821B2, “Methods and pharmaceutical compositions for treatment of cystic fibrosis” (INSERM (Institut National de la sante et de la Recherche …, priority 2012, dated 2016).

“Also recorded” adds a separate entry of the source.

Test [1] concerns NF-κB transcriptional activity. The test is described as follows: NF-κB firefly luciferase reporter assay, TNFα-stimulated cells. The conditions noted are these: TNFα 10 ng/ml; BEAS-2B and HeLa cells with wt or deltaF508-CFTR (FIGS. 1A, B). The format is cell-based. On the procedure: All cells were transiently transfected by NF-κB firefly luciferase reporter and renilla luciferase reference. A. HeLa control cells (Ctr) were pre-treated with diluent (0.5%) or different doses of sulindac for 1 h and stimulated for 1 h with 10 ng/ml TNFα. After removal of TNFα, cells were incubated for 4 h with sulindac. Luciferase activity was analysed in protein extract. The NF-κB transcriptional activity in cells treated with sulindac+TNFα was expressed in percent of diluent+TNFα. B. Hela cells Wt, DF508 and Ctr were pre-treated with diluent (0.5%), ibuprofen (500 μM) or sulindac (500 μM) for 1 h and stimulated for 1 h with […] TNFα. After removal of TNFα, cells were incubated for 4 h with pharmacological treatment. The NF-κB transcriptional activity in cells treated with ibuprofen+TNFα and sulindac+TNFα was expressed in percent of diluent+TNFα. Results of at least three independent experiments, means±SEM. Unilateral paired t test: * p<0.02
All cells were pre-treated with diluent (0.5%), sulindac ([…]) or sulindac sulfone (250 μM) for 1 h and stimulated for 1 h with 10 ng/ml TNFα. […]
Plasmid Constructs and Transient Transfection To assay the transcriptional activity of NF-κB, pNF-κBLuc, a luciferase reporter plasmid containing five sequential NF-κB binding sites upstream of a minimum promoter element, NF-κB-Luc (Stratagene), was used. Transcriptional activity of the IL-8 promoter was evaluated with reporter constructs consisting of the IL-8 promoter (−133 bp from the transcription start site) fused to the Luciferase gene, kindly provided by Naofumi Mukaida. […]
Cells were lysed with the Passive Lysis Buffer (Promega), and luciferase activity in the cellular extracts was determined by the Dual Luciferase Assay System (Promega) using a luminometer (Tristar; Berthold). The results were normalized to those obtained with the Renilla luciferase reference plasmid used to control the transfection efficiency, and the values were expressed as luminescence intensity (Luciferase/Renilla). […]
The transcriptional activity of NF-κB and IL-8 promoter was measured as described before. […]

The next test concerns C57BL/6J mice. The test is described as follows: LPS-induced lung inflammation mouse model, chemokines in BAL fluid by ELISA. It is filed as in vivo. The conditions noted are these: sulindac 40 mg/kg i.p. 1 h before intratracheal LPS 5 mg/kg. On the procedure:
A. Protocol for lung inflammation mouse models. Lung inflammation was induced by two intra tracheal instillation of LPS (5 mg/kg), 24 h and 6 h prior sacrifice. Sulindac (40 mg/kg) or diluents were administered by intraperitoneal injection 1 h before LPS instillation. B. Mouse macrophage inflammatory protein (MIP-2) was monitored in BAL fluid by ELISA assay. LPS-stimulated MIP-2 production was inhibited by sulindac.
Male C57BL/6J mice (8-10 wk old) were treated by intraperitoneal (IP) injection of sulindac (40 mg/kg) or vehicle one hour before the time of endotoxin administration which caused lung injury. Lung inflammation was induced by LPS from E. coli (Sigma) prepared in saline and administered by injection intra-tracheal. In order to track at a single time point after LPS challenge both the early humoral and the late cell infiltrating components of the inflammatory response, a volume of 50 μl LPS solution (5 mg/kg) was administered at two consecutive doses with a 18 h interval between doses. This challenge method enables to track both cytokine and cellular responses to induction of inflammation. […] The chemokines keratinocyte chemoattractant (KC) and mouse macrophage inflammatory protein (MIP-2) were monitored in BAL fluid following the corresponding manufacturers' protocols using a standard sandwich enzyme-linked immune absorbent assay (ELISA, R&D Systems).
Background: In an ELISA, binding on a coated surface is turned into a signal by an enzyme label.

Consider `CC1=C(CC(=O)O)c2cc(F)ccc2/C1=C\c1ccc([S+](C)[O-])cc1` (stereo not drawn) [sulindac, (Z)-5-fluoro-2-methyl-1-[p-(methylsulfinyl)benzylidene]-indene-3-acetic acid], for which the “transcriptional activity of NF-κB” value in test [1] is reported as “inhibits transcriptional activity of NF-κB”. In the test on C57BL/6J mice, the “KC (keratinocyte-derived chemokine) in BAL fluid” value was “decreased the secretion of KC and MIP-2”; the “MIP-2 in BAL fluid” value was “inhibited; also recorded: decreased the secretion of KC and MIP-2”.
